Measured values from ChEMBL document CHEMBL5331080, “Discovery of tetrahydrofuranyl spirooxindole-based SMYD3 inhibitors against gastric cancer via inducing lethal autophagy” (Eur J Med Chem, 2023).
pIC50: −log10 of the molar value. Blank lines part the entries; values can stand above or below the compound they belong to. The source made the active and inactive calls. The calls are words filed in the database; no cut-off is given here.

How the values were obtained:
[1] = system: HGC-27; assay: Antiproliferative activity against human HGC-27 cells assessed as inhibition of cell proliferation by MTT assay; format: functional, cell-based
[2] = biological target: T1, Histone-lysine N-methyltransferase SMYD3 (Homo sapiens) (UniProt Q9H7B4); assay: (§1) Inhibition of GST-tagged SMYD3 (unknown origin) using biotinylated MAP3K2 peptide as substrate incubated for 1 hrs by TR-FRET based assay
T1 sequence (whole entry): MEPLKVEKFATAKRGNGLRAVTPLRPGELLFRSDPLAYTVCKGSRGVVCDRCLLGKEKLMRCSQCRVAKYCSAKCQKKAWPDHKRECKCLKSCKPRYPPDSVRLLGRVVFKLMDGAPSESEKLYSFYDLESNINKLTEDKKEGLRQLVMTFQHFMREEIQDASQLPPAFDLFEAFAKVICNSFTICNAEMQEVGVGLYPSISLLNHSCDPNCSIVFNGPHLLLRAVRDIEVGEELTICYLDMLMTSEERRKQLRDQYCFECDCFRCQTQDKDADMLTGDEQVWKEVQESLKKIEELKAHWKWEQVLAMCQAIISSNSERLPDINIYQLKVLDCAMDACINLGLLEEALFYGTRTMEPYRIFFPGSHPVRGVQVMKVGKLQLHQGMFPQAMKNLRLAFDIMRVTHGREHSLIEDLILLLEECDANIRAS

[3] = system: BGC-823; assay: Antiproliferative activity against human BGC-823 cells assessed as inhibition of cell proliferation by MTT assay; format: functional, cell-based
[4] = system: BGC-823; assay: Inhibition of autophagic flux in human BGC-823 cells assessed as LC3-II accumulation incubated for 24 hrs in the presence of 3-MA by Western blot analysis; format: functional, cell-based
[5] = system: BGC-823; assay: Effect on total H3 expression level in human BGC-823 cells at 1 uM by Western blot analysis; format: functional, cell-based
[6] = biological target: T1, Histone-lysine N-methyltransferase SMYD3 (Homo sapiens); assay: Inhibition of SMYD3 in human BGC-823 cells assessed as suppression of H3K4 methylation level at 1 uM by Western blot analysis; format: cell-based
[7] = system: BGC-823; assay: Effect on total H3 methylation level in human BGC-823 cells at 1 uM by Western blot analysis; format: functional, cell-based
[8] = biological target: N-lysine methyltransferase SMYD2 (Homo sapiens) (UniProt Q9NRG4); assay: Inhibition of SMYD2 (unknown origin)
Chain of N-lysine methyltransferase SMYD2 (Homo sapiens) (Q9NRG4 whole entry): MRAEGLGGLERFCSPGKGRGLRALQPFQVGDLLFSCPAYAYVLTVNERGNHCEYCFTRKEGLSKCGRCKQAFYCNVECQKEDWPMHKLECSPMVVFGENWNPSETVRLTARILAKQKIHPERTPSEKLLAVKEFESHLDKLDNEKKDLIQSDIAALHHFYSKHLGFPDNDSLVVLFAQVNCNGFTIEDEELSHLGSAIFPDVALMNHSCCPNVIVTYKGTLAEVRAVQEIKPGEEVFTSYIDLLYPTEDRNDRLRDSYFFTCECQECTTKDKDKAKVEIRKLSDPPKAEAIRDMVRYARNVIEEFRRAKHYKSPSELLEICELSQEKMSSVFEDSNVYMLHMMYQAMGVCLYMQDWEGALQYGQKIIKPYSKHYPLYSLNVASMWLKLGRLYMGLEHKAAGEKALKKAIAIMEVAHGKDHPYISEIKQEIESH

[9] = system: Mus musculus; assay: Effect on total Akt protein level in Balb/c nude mouse xenografted with human BGC-823 cells at 15 to 30 mg/kg, ip by immunohistochemistry analysis; format: functional, organism-based; conditions: dose 15-30 mg/kg
[10] = system: BGC-823; assay: Inhibition of autophagic flux in human BGC-823 cells transfected with Akt1 siRNA assessed as increase in mTOR incubated for 24 hrs by Western blot analysis; format: functional, cell-based
[11] = system: BGC-823; assay: Induction of autophagy in human BGC-823 cells assessed as autophagic vacuoles by transmission electron microscopic analysis; format: functional, cell-based
[12] = biological target: T2, Histone-lysine N-methyltransferase SMYD3 (Homo sapiens, UniProt Q9H7B4); assay: as §1
T2 sequence (Q9H7B4 whole entry): T1 sequence (whole entry)

[13] = system: BGC-823; assay: Induction of autophagy in human BGC-823 cells transfected with GFP-LC3 assessed as increase in GFP-LC3 fluorescent puncta in the presence of 3-MA by DAPI staining based immunofluorescence analysis; format: functional, cell-based
[14] = system: BGC-823; assay: Inhibition of autophagic flux in human BGC-823 cells transfected with Akt1 siRNA assessed as p62 accumulation incubated for 24 hrs by Western blot analysis; format: functional, cell-based
[15] = system: BGC-823; assay: Induction of autophagy in human BGC-823 cells transfected with GFP-LC3 assessed as increase in GFP-LC3 fluorescent puncta by DAPI staining based immunofluorescence analysis; format: functional, cell-based
[16] = biological target: Histone-lysine N-methyltransferase, H3 lysine-79 specific (Homo sapiens) (UniProt Q8TEK3); assay: Inhibition of DOT1L (unknown origin)
Chain of Histone-lysine N-methyltransferase, H3 lysine-79 specific (Homo sapiens) (Q8TEK3 whole entry, looked up, the tested form may be a part): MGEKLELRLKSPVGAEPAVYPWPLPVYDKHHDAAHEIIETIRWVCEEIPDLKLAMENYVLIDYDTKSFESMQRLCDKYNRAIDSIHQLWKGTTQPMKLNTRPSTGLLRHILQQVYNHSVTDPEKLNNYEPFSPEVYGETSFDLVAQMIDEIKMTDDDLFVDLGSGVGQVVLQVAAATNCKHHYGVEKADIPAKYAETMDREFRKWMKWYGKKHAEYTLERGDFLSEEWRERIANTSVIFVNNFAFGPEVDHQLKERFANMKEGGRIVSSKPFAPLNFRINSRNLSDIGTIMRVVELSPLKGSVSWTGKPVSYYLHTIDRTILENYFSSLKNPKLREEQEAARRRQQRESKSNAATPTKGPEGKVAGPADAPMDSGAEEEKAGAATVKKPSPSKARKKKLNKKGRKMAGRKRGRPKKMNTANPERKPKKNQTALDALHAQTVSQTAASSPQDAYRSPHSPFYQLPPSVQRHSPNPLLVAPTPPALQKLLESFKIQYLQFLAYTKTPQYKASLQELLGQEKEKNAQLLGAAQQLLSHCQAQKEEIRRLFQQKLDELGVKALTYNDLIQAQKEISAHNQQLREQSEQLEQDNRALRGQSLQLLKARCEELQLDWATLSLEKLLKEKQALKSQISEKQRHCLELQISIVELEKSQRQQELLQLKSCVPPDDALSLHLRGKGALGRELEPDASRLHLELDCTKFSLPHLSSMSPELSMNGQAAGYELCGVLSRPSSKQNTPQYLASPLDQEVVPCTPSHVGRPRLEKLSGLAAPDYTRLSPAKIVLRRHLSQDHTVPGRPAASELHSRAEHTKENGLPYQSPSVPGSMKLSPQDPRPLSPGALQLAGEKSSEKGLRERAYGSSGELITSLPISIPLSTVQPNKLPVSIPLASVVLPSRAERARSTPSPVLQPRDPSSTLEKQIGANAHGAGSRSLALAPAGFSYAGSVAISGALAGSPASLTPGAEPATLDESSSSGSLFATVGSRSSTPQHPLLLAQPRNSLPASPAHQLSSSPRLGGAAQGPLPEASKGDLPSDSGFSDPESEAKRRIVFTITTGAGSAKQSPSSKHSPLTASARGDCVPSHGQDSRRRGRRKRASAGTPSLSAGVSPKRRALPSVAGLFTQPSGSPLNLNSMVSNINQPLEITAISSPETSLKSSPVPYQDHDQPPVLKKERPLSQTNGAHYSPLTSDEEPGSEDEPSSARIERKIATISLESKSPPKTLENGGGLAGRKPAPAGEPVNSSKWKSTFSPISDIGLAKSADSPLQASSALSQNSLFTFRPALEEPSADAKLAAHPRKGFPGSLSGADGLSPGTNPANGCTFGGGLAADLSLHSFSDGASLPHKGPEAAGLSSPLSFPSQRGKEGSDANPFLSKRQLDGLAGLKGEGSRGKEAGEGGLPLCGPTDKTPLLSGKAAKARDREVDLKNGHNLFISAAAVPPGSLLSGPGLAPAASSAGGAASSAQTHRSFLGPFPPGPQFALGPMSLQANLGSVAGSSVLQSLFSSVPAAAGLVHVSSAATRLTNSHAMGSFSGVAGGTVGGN

[17] = system: BGC-823; assay: Inhibition of autophagic flux in human BGC-823 cells assessed as inhibition of autophagosome-lysosome fusion by measuring suppression of GFP-LC3 and LAMP1 intracellular co-localization incubated for 24 hrs by DAPI staining based immunofluorescence analysis; format: functional, cell-based
[18] = system: BGC-823; assay: Antiproliferative activity against human BGC-823 cells xenografted in Balb/c nude mouse assessed as induction of autophagy by measuring increase in LC3-II staining at 15 to 30 mg/kg, ip by immunohistochemistry analysis; format: functional, organism-based; conditions: dose 15-30 mg/kg
[19] = biological target: Histone-lysine N-methyltransferase EZH2 (Homo sapiens) (UniProt Q15910); assay: Inhibition of EZH2 (unknown origin)
Chain of Histone-lysine N-methyltransferase EZH2 (Homo sapiens) (Q15910 whole entry, looked up): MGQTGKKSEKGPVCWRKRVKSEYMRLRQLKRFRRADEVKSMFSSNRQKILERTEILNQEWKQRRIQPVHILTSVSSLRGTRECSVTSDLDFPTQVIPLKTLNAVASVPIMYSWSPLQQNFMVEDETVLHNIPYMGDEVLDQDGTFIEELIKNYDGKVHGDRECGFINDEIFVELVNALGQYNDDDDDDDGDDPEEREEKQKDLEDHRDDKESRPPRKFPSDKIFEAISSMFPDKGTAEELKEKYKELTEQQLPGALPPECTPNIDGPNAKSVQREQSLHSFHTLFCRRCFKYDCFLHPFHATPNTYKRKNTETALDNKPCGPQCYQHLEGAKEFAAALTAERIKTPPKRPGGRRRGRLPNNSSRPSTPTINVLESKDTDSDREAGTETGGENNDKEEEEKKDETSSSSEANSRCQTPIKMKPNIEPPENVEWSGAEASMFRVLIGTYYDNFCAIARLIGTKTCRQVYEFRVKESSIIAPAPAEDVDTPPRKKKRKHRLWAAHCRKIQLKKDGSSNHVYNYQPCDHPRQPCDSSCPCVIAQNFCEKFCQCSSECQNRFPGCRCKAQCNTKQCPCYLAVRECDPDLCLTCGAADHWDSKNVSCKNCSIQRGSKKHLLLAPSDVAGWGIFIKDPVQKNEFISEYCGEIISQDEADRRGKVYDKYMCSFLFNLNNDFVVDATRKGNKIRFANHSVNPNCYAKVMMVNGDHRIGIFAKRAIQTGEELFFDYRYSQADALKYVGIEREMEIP

[20] = biological target: T1, Histone-lysine N-methyltransferase SMYD3 (Homo sapiens); assay: Inhibition of SMYD3-induced Akt1 lysine methylation in human BGC-823 cells at 1 uM by Western blot analysis; format: cell-based
[21] = biological target: T1, Histone-lysine N-methyltransferase SMYD3 (Homo sapiens); assay: Inhibition of SMYD3 in human BGC-823 cells assessed as translocation of SMYD3 from nucleus to cytoplasm by DAPI staining based analysis; format: cell-based
[22] = system: BGC-823; assay: Antitumor activity against human BGC-823 cells xenografted in ip dosed Balb/c nude mouse assessed as suppression of tumor growth; format: functional, organism-based; conditions: dose 15-30 mg/kg
[23] = system: Mus musculus; assay: Effect on total SMYD3 protein level in Balb/c nude mouse xenografted with human BGC-823 cells at 15 to 30 mg/kg, ip by immunohistochemistry analysis; format: functional, organism-based; conditions: dose 15-30 mg/kg
[24] = Toxicity in Balb/c nude mouse xenografted with human BGC-823 cells assessed as change in main organs morphology at 15 to 30 mg/kg, ip by H&E staining based analysis; format: organism-based; conditions: in vivo, dose 15-30 mg/kg
[25] = system: BGC-823; assay: Antitumor activity against human BGC-823 cells xenografted in ip dosed Balb/c nude mouse assessed as suppression of tumor weight; format: functional, organism-based; conditions: dose 15-30 mg/kg
[26] = system: BGC-823; assay: Antiproliferative activity against human BGC-823 cells transfected with […] siRNA assessed as reduction in cell viability incubated for 48 hrs by MTT assay; format: functional, cell-based
[27] = system: BGC-823; assay: Inhibition of autophagic flux in human BGC-823 cells transfected with Akt1 siRNA assessed as LC3 cleavage incubated for 24 hrs by Western blot analysis; format: functional, cell-based
[28] = system: BGC-823; assay: Antitumor activity against human BGC-823 cells xenografted in ip dosed Balb/c nude mouse assessed as suppression of tumor volume; format: functional, organism-based; conditions: dose 15-30 mg/kg
[29] = system: BGC-823; assay: Inhibition of autophagic flux in human BGC-823 cells assessed as p62 accumulation incubated for 24 hrs in the presence of 3-MA by Western blot analysis; format: functional, cell-based
[30] = system: BGC-823; assay: Antiproliferative activity against human BGC-823 cells xenografted in Balb/c nude mouse assessed as induction of autophagy by measuring increase in p62 staining at 15 to 30 mg/kg, ip by immunohistochemistry analysis; format: functional, organism-based; conditions: dose 15-30 mg/kg
[31] = Toxicity in Balb/c nude mouse xenografted with human BGC-823 cells assessed as change in body weight at 15 to 30 mg/kg, ip; format: organism-based; conditions: in vivo, dose 15-30 mg/kg
[32] = biological target: T3, Histone-lysine N-methyltransferase EHMT2 (Homo sapiens) (UniProt Q96KQ7); assay: Inhibition of G9a (unknown origin)
T3 sequence (whole entry): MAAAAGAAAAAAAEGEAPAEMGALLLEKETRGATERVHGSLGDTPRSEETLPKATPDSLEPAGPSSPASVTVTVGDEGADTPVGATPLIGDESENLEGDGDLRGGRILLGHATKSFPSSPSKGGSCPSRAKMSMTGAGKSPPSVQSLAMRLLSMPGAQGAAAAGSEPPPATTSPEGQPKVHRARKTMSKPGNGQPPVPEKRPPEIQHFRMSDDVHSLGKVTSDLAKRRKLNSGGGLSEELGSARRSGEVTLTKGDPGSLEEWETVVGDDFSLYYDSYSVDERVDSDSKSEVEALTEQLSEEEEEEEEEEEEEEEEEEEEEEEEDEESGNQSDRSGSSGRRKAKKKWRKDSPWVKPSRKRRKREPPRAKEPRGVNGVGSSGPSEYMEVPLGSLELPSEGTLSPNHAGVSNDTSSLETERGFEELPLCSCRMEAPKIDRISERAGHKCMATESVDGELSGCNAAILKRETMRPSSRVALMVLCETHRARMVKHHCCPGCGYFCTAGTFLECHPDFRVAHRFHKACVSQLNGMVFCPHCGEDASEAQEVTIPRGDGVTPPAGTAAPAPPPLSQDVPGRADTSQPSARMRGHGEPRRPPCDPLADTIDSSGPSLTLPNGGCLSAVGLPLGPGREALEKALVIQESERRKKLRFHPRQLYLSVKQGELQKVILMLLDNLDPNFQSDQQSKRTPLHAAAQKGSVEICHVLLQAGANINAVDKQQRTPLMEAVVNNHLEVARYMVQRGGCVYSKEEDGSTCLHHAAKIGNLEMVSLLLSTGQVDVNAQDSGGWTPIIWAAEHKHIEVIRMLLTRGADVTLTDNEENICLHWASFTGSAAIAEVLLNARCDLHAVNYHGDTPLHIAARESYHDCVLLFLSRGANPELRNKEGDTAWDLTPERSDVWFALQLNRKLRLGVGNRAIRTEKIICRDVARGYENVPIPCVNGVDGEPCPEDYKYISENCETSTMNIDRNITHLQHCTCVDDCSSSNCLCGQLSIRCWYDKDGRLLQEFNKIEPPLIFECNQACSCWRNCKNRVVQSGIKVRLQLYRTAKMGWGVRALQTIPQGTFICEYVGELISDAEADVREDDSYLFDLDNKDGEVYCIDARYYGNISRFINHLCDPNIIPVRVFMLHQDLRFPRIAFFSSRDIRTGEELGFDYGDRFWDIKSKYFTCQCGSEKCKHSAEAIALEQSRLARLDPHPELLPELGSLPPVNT

[33] = system: BGC-823; assay: Antiproliferative activity against human BGC-823 cells assessed as reduction in cell viability incubated for 48 hrs in the presence of 3-MA by MTT assay; format: functional, cell-based
[34] = biological target: T1, Histone-lysine N-methyltransferase SMYD3 (Homo sapiens); assay: Inhibition of SMYD3 in human BGC-823 cells transfected with SMYD3 siRNA assessed as suppression of H3K4 methylation level by Western blot analysis; format: cell-based

SMILES: O=C1N(Cc2ccccc2)C[C@@H]2[C@@H](c3cccs3)[C@]3(O[C@]12O)C(=O)Nc1ccccc13
Activity [1]: Active | inhibition [2]: Active | Activity [3]: Active

SMILES: COc1ccc([C@@H]2[C@H]3CN(Cc4ccccc4)C(=O)[C@@]3(O)O[C@]23C(=O)Nc2ccccc23)cc1OC
Activity [1]: Active | inhibition [2]: Active | Activity [3]: Active

SMILES: O=C1N(Cc2ccccc2)C[C@@H]2[C@@H](c3ccc(Cl)cc3Cl)[C@]3(O[C@]12O)C(=O)Nc1ccccc13
Activity [1]: Active | inhibition [2]: Active | Activity [3]: Active

SMILES: O=C1N(Cc2ccccc2)C[C@@H]2[C@@H](c3ccc4ccccc4c3)[C@]3(O[C@]12O)C(=O)Nc1ccccc13
Activity [1]: Active | inhibition [2]: Active | Activity [3]: Active

The next lines start with results.

inhibition [2]: Active
SMILES: Cc1ccc([C@@H]2[C@H]3CN(Cc4ccccc4)C(=O)[C@@]3(O)O[C@]23C(=O)Nc2ccccc23)cc1
Activity [1]: Active | Activity [3]: Active

inhibition [2]: Active
SMILES: O=C1N(Cc2ccccc2)C[C@@H]2[C@@H](c3ccc(Cl)cc3)[C@]3(O[C@]12O)C(=O)Nc1ccccc13
Activity [1]: Active | Activity [3]: Active

inhibition [6]: Active | inhibition [8]: inactive | pIC50 [12]: 6.09 | inhibition [16]: inactive | inhibition [19]: inactive | inhibition [20]: Active | inhibition [21]: Active | inhibition [32]: inactive | pIC50 [3]: 6.12 | inhibition [34]: Active
SMILES: O=C1N(Cc2ccccc2)C[C@@H]2[C@@H](c3ccc(Br)cc3)[C@]3(O[C@]12O)C(=O)Nc1ccccc13
Activity [1]: Active | inhibition [4]: Active | Activity [5]: inactive | Activity [7]: inactive | Activity [9]: inactive | inhibition [10]: Active | Activity [11]: Active | Activity [13]: inactive | inhibition [14]: Active | Activity [15]: Active | inhibition [17]: Active | Activity [18]: Active | Activity [22]: Dose-Dependent Effect | Activity [23]: inactive | Activity [24]: Non-Toxic | Activity [25]: Dose-Dependent Effect | Activity [26]: inactive | inhibition [27]: Active | Activity [28]: Dose-Dependent Effect | inhibition [29]: Active | Activity [30]: Active | Activity [31]: Non-Toxic | Activity [33]: inactive
